How the values were obtained:
PI-3 kinase γ [1] = target: T1, PI-3 kinase γ (Homo sapiens, UniProt P48736); test: PI3Kγ inhibitory activity, PI3-kinase HTRF assay (inhibition ratio); format: biochemical; conditions: 0.5 h, compound at 50 μmol/L
Procedure: For each compound synthesized in the above Examples, PI3Kγ inhibitory activity was measured.
The PI3Kγ inhibitory activity of a compound was evaluated using PI3-kinase HTRF™ assay (Millipore) according to the following procedure:
To each well of a testing plate, 5 μL of a compound solution containing 10% DMSO (200 μmol/L or 40 μmol/L as the concentration of the compound), 5 μL of a substrate solution (40 μmol/L phosphatidylinositol (4,5)-bisphosphate, 20 mmol/L MgCl2, 10 mmol/L DTT), and 5 μL of a enzyme solution (80 μg/mL PI-3 kinase γ, 10 mmol/L MgCl2, 5 mmol/L DTT) were added, and then allowed to stand for 10 minutes.
Then, 5 μL of a reaction solution (40 μmol/L ATP, 10 mmol/L MgCl2, 5 mmol/L DTT) was added thereto. After reacting for 30 minutes at room temperature, 5 μL of a solution containing EDTA and biotinylated phosphatidylinositol (3,4,5)-triphosphate were added to quench the reaction.
5 μL of a detection reagent containing a europium-labeled anti-GST antibody, the GST-tagged PH domain, and allophycocyanin-labeled streptavidin was added thereto. After 18 hours, HTRF (excitation wavelength: 330 nm, measured wavelengths: 620 nm and 665 nm) was measured.
HTRF ratio was defined as the value obtained by dividing the amount of fluorescence obtained at the measured wavelength 665 nm by the amount of fluorescence obtained at 620 nm. The HTRF ratio in the absence of a compound was defined as 100% activity and the HTRF ratio in the absence of PI-3 kinase γ was defined as 0% activity to calculate an inhibition ratio which was defined as the PI3Kγ inhibitory activity of a compound at 50 μmol/L or 10 μmol/L.

[2] = Solubility test in artificial intestinal juice pH 6.8; format: physicochemical; conditions: kinetic from dmso stock, artificial intestinal juice pH 6.8, 1% DMSO, 25° C.
Procedure: The solubility of a compound was determined under a condition in which 1% DMSO was added. 10 mmol/L compound solution was prepared using DMSO, and then 6 μL of the compound solution was added to 594 μL of artificial intestinal juice in pH 6.8 (to 250 mL of 0.2 mol/L potassium dihydrogen phosphate reagent solution was added 118 mL of 0.2 mol/L NaOH reagent solution and water to provide a final volume of 1000 mL). After standing at 25° C. for 16 hours, the mixed solution was filtered with suction. The filtrate was diluted twice with methanol/water (1/1), and then a concentration in the filtration was measured with HPLC or LC/MS/MS by the absolute calibration method.

[3] = Metabolic stability test, pooled human liver microsome; format: in vitro ADME; conditions: 2 μmol/L compound; human liver microsome 0.5 mg protein/mL, NADPH, 37° C.
Procedure: After a subject compound was reacted for a certain time using a commercially available pooled human liver microsome, a reacted sample and an unreacted sample are compared to calculate a survival ratio, and then the degree of metabolism in the liver was evaluated.
0.2 mL of a buffer solution (50 mmol/L of Tris-HCl in pH 7.4, 150 mmol/L of potassium chloride, and 10 mmol/L of magnesium chloride) containing a human liver microsome of 0.5 mg protein/mL was reacted in the presence of 1 mmol/L NADPH at 37° C. for 0 or 30 minutes (oxidative reaction). After reacting, 50 μL of the reaction solution was added to 100 μL of a solution of methanol/acetonitrile (1/1 (v/v)), mixed, and then centrifuged at 3000 rpm for 15 minutes. The test compound in the supernatant was quantitated with LC/MS/MS. The amount of the compound at a reaction time of 0 minute was defined as 100% and, based on that, the percentage of the test compound remained after reacting for 30 minutes was calculated.

CYP1A2 = target: T2, CYP1A2 (Homo sapiens, UniProt P05177); test: CYP inhibition test, O-de-ethylation of 7-ethoxyresorufin; format: in vitro ADME; conditions: pooled human liver microsome; one of 5 kinds
T2 construct: enzyme: pooled human liver microsome 0.2 mg protein/mL; from tissue; host or cells: pooled human liver microsomes
T2 sequence (P05177 1-516): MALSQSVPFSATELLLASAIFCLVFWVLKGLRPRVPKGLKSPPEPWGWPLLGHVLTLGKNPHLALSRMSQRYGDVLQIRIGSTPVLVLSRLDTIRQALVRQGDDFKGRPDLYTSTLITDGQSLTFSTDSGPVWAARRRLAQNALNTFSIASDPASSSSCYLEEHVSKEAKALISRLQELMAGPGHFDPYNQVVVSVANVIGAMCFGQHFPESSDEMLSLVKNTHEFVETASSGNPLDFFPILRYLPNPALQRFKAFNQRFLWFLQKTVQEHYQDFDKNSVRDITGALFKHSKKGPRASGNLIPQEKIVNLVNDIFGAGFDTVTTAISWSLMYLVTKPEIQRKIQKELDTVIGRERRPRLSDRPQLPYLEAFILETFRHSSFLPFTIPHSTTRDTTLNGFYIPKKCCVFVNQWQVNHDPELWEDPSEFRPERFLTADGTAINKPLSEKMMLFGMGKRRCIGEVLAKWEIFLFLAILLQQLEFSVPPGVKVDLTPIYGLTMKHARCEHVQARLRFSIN
Description: (§1) O-de-ethylation of 7-ethoxyresorufin (CYP1A2), methyl-hydroxylation of tolbutamide (CYP2C9), 4′-hydroxylation of mephenyloin (CYP2C19), O-demethylation of dextromethorphan (CYP2D6), and hydroxylation of terfenadine (CYP3A4), which are typical substrate for metabolic reactions of human main CYP5 molecular species (CYP1A2, 2C9, 2C19, 2D6, and 3A4), were adopted as indexes.
(§2) The reaction conditions are as follows: substrate: 0.5 μmol/L of ethoxyresorufin (CYP1A2), 100 μmol/L of tolbutamide (CYP2C9), 50 μmol/L of S-mephenyloin (CYP2C19), […] of dextromethorphan (CYP2D6), and 1 μmol/L of terfenadine (CYP3A4); reaction time; 15 minutes; reaction temperature: 37° C.; enzyme: pooled human liver microsome 0.2 mg protein/mL; test drug concentration: 1, 5, 10, and 20 μmol/L (4 points).
(§3) In a 96-well plate, as a reaction solution, five kinds of substrates, a human liver microsome, and a test drug were added to 50 mmol/L Hepes buffer solution in the aforementioned ratio. A coenzyme NADPH was added to start a metabolic reaction, which is an index. After reacting at 37° C. for 15 minutes, a solution of methanol/acetonitrile (1/1 (v/v)) was added to quench the reaction. After centrifugation at 3000 rpm for 15 minutes, resorufin (CYP1A2 metabolite) in the supernatant was quantitated with a fluorescence multilabel counter, and hydroxylated tolbutamide (CYP2C9 metabolite), 4′-hydroxylated mephenyloin (CYP2C19 metabolite), […], terfenadine in alcohol form (CYP3A4 metabolite) were quantitated with LC/MS/MS.
(§4) The case wherein only DMSO (a solvent which dissolved a drug) was added to a reaction system was defined as a control (100%). When a test drug solution was added, the remaining activity (%) at each concentration was calculated, and then IC50 was calculated with a concentration and an inhibition ratio by an inverse estimation using a logistic model.

CYP2C9 = target: T3, CYP2C9 (Homo sapiens, UniProt P11712); test: CYP inhibition test, methyl-hydroxylation of tolbutamide; format: in vitro ADME; conditions: pooled human liver microsome; one of 5 kinds
T3 construct: enzyme: pooled human liver microsome 0.2 mg protein/mL; from tissue; host or cells: pooled human liver microsomes
Description: as §1, §2, §3, §4

CYP2C19 = target: T4, CYP2C19 (Homo sapiens, UniProt P33261); test: CYP inhibition test, 4′-hydroxylation of mephenyloin; format: in vitro ADME; conditions: pooled human liver microsome; one of 5 kinds
T4 construct: enzyme: pooled human liver microsome 0.2 mg protein/mL; from tissue; host or cells: pooled human liver microsomes
Description: as §1, §2, §3, §4

CYP2D6 = target: T5, CYP2D6 (Homo sapiens, UniProt P10635); test: CYP inhibition test, O-demethylation of dextromethorphan; format: in vitro ADME; conditions: pooled human liver microsome; one of 5 kinds
T5 construct: enzyme: pooled human liver microsome 0.2 mg protein/mL; from tissue; host or cells: pooled human liver microsomes
Description: as §1, §2, §3, §4

CYP3A4 = target: T6, CYP3A4 (Homo sapiens, UniProt P08684); test: CYP inhibition test, hydroxylation of terfenadine; format: in vitro ADME; conditions: pooled human liver microsome; one of 5 kinds
T6 construct: enzyme: pooled human liver microsome 0.2 mg protein/mL; from tissue; host or cells: pooled human liver microsomes
Description: as §1, §2, §3, §4

[4] = target: T7, human ether-a-go-go related gene (hERG) channel (Homo sapiens, UniProt Q12809); test: hERG test, whole-cell patch-clamp, IKr; format: cell-based; conditions: 1 μmol/L compound; HEK293 cell expressing hERG
T7 construct: expressed in transfected cells; host or cells: HEK293
Description: For the purpose of risk evaluation of QT interval extension of electrocardiogram, the activity on delayed rectification K^+ current (IKr), which plays an important role in a cardiac ventricle repolarization process, was examined using the HEK293 cell that was made to express human ether-a-go-go related gene (hERG) channel.
Using an automatic patch-clamp system (PatchXpress 7000A, Axon Instruments Inc.), by a whole-cell patch-clamp method, after the cell was maintained at a membrane potential of −80 mV, IKr induced upon applying depolarizing stimulation of +50 mV for 2 seconds and further applying repolarizing stimulation of −50 mV for 2 seconds was recorded. After generated electric current became stable, a test substance dissolved at an intended concentration in extracellular fluid (137 mmol/L NaCl, 4 mmol/L KCl, 1.8 mmol/L CaCl2.2H2O, 1 mmol/L MgCl2.6H2O, 10 mmol/L glucose, 10 mmol/L HEPES (4-(2-hydroxyethyl)-1-piperazineethanesulfonic acid), pH=7.4) was applied to the cell for 10 minutes under room temperature condition. From the obtained IKr, the absolute value of the maximum tail current was measured using analysis software (DataXpress ver. 1, Molecular Devices Corporation) and the value of the electric current in a maintained membrane potential as baseline. Moreover, an inhibition ratio for the maximum tail current prior to the application of the test substance was calculated and then compared with a group of media-application (0.1% dimethylsulfoxide solution) to evaluate influence of the test substance on IKr.

PI-3 kinase γ [5] = target: T1, PI-3 kinase γ; test: PI3Kγ inhibitory activity (Ki value); format: biochemical; conditions: test ATP concentration 10 μmol/L
Procedure: The PI3Kγ inhibitory activity (Ki value) of a compound was evaluated according to the following procedure:
5 μL of a compound solution containing 10% DMSO and 200 μmol/L of a compound was changed to 5 μL of a compound solution containing 10% DMSO and either 200, 64, 20, 6.4, 2, 0.64, or 0.20 μmol/L of the compound (optionally, this is diluted to a lower concentration). Using a method similar to the method for measuring PI3Kγ inhibitory activity, inhibition ratios were measured in the presence of the compound at 50, 16, 5, 1.6, 0.5, 0.16, and 0.05 μmol/L (optionally, a lower concentration). Then an IC50 value was calculated by a logistic approximation method or the linear regression method using two concentrations that across 50% inhibition. Separately, the ATP concentration in the reaction solution (40 μmol/L ATP, 10 mmol/L MgCl2, 5 mmol/L DTT) at the time of the start of a reaction in the absence of the compound was changed to 80, 40, 20, 10, 5, 2.5, 1.25, or 0.625 μmol/L. Then, HTRF ratios were measured by a similar method. The value obtained by subtracting the HTRF ratio at each ATP concentration from the HTRF ratio in the absence of PI-3 kinase γ was defined as the value obtained by multiplying reaction rate (v) at each ATP concentration with a constant. The Michaelis-Menten constant Km was then calculated by the Lineweaver-Burk plot method. The Ki value of a compound was calculated by the following formula.
Ki=IC50 value/(1+10 μmol/L (test ATP concentration)/Km(μmol/L))

T1 sequence (P48736 whole entry): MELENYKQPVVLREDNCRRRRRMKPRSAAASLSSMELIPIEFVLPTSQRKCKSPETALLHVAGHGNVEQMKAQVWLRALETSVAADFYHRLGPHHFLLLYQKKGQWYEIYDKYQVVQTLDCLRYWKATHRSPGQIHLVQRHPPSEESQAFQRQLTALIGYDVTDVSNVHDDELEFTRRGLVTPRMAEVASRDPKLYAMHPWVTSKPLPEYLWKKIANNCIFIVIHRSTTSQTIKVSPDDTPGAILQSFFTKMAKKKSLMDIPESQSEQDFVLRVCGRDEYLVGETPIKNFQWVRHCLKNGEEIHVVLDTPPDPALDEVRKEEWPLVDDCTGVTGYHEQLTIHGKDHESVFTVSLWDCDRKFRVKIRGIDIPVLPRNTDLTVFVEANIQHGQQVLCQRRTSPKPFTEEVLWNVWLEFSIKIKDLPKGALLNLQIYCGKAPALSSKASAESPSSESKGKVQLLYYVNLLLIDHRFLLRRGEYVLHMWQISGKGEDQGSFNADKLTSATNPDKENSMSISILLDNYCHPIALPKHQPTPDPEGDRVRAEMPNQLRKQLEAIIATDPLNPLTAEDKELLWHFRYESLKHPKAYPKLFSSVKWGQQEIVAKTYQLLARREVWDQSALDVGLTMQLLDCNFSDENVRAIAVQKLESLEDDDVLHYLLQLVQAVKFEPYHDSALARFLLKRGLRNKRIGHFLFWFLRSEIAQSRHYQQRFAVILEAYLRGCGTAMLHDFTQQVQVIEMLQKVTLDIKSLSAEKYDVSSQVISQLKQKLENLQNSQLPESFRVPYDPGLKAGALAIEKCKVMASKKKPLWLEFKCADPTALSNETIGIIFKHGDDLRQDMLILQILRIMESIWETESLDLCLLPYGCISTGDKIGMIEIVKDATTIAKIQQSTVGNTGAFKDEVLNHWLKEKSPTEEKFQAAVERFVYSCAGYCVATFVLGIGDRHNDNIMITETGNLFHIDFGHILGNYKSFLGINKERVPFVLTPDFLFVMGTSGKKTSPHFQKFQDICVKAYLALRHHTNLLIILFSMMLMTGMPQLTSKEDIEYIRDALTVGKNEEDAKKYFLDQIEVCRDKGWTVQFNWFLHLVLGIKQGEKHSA
T4 sequence (P33261 whole entry): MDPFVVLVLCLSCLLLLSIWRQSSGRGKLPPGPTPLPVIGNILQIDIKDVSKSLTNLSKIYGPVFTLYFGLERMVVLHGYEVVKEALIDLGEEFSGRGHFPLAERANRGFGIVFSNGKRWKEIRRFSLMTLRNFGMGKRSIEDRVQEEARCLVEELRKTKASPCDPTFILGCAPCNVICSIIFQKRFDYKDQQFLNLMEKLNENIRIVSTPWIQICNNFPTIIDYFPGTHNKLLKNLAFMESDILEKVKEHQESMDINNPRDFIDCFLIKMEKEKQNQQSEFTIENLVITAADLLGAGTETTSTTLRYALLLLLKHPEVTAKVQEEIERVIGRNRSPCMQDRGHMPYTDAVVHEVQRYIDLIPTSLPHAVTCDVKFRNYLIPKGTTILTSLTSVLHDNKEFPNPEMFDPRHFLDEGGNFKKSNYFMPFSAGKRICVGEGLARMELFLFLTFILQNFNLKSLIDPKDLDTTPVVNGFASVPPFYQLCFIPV
T7 sequence (Q12809 whole entry): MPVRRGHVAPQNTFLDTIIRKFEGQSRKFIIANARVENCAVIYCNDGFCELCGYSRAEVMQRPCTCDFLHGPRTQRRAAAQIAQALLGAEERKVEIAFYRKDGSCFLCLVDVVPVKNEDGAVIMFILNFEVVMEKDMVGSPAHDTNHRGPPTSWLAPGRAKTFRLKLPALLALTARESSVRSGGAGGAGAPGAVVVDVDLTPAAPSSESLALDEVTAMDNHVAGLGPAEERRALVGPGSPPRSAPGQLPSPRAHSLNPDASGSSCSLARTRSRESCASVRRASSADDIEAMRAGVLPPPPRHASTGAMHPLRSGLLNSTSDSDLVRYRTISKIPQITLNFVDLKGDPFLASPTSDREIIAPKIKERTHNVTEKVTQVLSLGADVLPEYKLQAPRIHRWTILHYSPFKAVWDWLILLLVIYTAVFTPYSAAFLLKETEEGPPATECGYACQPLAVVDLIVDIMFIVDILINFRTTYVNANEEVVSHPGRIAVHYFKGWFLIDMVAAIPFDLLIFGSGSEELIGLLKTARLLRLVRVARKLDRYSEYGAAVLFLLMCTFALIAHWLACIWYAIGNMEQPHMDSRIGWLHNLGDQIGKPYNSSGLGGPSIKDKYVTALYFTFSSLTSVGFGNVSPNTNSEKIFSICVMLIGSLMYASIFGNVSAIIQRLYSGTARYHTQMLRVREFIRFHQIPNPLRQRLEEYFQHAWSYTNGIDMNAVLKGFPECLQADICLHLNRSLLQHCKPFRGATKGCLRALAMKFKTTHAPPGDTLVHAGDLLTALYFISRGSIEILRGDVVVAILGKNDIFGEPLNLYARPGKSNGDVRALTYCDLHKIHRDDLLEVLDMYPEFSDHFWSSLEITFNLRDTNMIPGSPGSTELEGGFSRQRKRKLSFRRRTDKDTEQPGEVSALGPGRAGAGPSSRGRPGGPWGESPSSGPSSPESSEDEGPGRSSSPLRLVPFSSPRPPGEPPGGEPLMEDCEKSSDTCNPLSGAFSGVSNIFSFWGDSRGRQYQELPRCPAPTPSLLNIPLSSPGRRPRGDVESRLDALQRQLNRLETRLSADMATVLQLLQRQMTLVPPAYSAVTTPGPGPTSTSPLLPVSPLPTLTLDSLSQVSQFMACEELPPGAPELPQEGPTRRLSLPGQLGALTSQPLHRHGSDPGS
T6 sequence (P08684 whole entry): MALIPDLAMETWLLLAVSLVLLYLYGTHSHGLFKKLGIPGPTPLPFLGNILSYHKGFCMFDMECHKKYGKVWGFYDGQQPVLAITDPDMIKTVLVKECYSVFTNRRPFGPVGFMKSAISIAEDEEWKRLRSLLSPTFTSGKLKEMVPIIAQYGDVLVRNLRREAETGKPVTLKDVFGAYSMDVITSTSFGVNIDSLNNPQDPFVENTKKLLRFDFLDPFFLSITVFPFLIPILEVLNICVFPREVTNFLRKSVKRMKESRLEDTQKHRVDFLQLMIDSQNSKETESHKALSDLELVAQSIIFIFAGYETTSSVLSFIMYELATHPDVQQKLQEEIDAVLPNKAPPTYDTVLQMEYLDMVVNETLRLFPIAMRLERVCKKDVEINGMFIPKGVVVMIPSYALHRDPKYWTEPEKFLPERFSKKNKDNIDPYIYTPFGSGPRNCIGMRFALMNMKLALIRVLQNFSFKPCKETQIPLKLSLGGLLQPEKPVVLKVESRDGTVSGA
T5 sequence (P10635 whole entry): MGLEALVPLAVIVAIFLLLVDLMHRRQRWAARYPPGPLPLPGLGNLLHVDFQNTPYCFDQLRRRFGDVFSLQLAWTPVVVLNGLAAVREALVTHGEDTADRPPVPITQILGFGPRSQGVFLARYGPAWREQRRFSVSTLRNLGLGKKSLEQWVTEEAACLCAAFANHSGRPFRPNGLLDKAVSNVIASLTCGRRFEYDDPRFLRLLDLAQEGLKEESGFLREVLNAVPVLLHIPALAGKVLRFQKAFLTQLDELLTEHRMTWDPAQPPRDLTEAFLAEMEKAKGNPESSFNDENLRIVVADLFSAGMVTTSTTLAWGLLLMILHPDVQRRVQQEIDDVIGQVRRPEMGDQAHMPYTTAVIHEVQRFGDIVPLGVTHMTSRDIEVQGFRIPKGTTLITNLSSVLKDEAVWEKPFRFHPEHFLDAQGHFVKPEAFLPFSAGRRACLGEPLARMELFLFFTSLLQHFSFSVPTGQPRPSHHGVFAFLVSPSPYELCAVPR
T3 sequence (P11712 whole entry): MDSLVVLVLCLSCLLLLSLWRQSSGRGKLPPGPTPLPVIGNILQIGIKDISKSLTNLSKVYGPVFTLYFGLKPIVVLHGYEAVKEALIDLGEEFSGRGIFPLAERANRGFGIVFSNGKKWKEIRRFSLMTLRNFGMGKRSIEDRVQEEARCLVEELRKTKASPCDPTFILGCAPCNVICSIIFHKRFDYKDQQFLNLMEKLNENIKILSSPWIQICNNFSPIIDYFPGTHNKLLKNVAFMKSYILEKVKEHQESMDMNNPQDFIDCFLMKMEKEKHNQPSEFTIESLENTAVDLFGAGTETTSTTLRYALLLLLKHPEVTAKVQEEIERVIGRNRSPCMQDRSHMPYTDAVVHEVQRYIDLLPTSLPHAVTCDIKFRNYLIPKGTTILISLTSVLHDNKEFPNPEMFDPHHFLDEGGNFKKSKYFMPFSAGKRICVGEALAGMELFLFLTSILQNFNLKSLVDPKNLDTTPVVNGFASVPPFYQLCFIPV

inhibition at 50 µM (PI-3 kinase γ [1]) [%] | solubility at 16 h [2] [µM] | percentage of test compound remained after reacting for 30 minutes [3] [%] | Ki (PI-3 kinase γ [5]) [µM] | Structure (SMILES) | also measured
≥ 95 | > 50 | 90.1 |  | CC1(C)SC(N2CCOc3cccnc32)=NC1=O [Compound I-49] | IC50 (CYP1A2): > 20 µM; IC50 (CYP2C9): > 20 µM; IC50 (CYP2C19): > 20 µM; IC50 (CYP2D6): > 20 µM; IC50 (CYP3A4): > 20 µM
≥ 95 | > 50 |  |  | O=C(O)c1ccc(-c2ccc3c(n2)N(C(=O)Nc2ccccc2)CCO3)s1 [Compound I-109] | hERG inhibition ratio for the maximum tail current (IKr) [4]: 1%
≥ 95 |  |  | 0.031 | O=C(O)c1ccc(-c2ccc3c(n2)N(C(=O)Nc2cccnc2)CCO3)cc1 [Compound I-208] | 
≥ 95 | > 50 | 100 |  | O=C(O)CNC(=O)Nc1cnc2c(c1)OCCN2C(=O)Nc1ccccc1 [Compound I-239] | IC50 (CYP1A2): > 20 µM; IC50 (CYP2C9): > 20 µM; IC50 (CYP2C19): > 20 µM; IC50 (CYP2D6): > 20 µM; IC50 (CYP3A4): > 20 µM
86 |  |  |  | COC(=O)c1ccc(Nc2cnc3c(c2)OCCN3C(=O)Nc2ccccc2)cc1OC [Compound I-327] | 
91 |  |  |  | CCN(CC)c1cc(F)cc(Nc2cnc3c(c2)OCCN3C(=O)Nc2ccccc2)c1 [Compound I-328] | 
95 |  |  | 0.027 | COc1ccc(-c2ccc3c(n2)N(C2=NC(=O)C(C)(C)S2)CCO3)cc1OC [Compound I-330] | 

The remaining lines, values behind:

Structure (SMILES) | inhibition at 50 µM (PI-3 kinase γ [1]) [%] | solubility at 16 h [2] [µM] | percentage of test compound remained after reacting for 30 minutes [3] [%] | Ki (PI-3 kinase γ [5]) [µM] | also measured
O=C(O)c1ccc(Nc2cnc3c(c2)OCCN3C(=O)Nc2ccccc2)cc1 [Compound I-139] | ≥ 95 | > 50 | 83 |  | hERG inhibition ratio for the maximum tail current (IKr) [4]: 8.7%
O=C(O)c1ccc(Nc2ccc3c(n2)N(C(=O)Nc2ccccc2)CCO3)cc1 [Compound I-146] | ≥ 95 |  | 100 | 0.046 | 
O=C(O)COc1ccccc1Nc1ccc2c(n1)N(C(=O)Nc1ccccc1)CCO2 [Compound I-248] | ≥ 95 | > 50 |  | 0.025 | 
O=C(Nc1ccccc1)N1CCOc2cc(Nc3ccc(CN4CCS(=O)(=O)CC4)cc3)cnc21 [Compound I-325] | 82 |  |  |  | 

Source: patent US20110172217A1, “RING-FUSED MORPHOLINE DERIVATIVE HAVING PI3K-INHIBITING ACTIVITY” (Shionogi & Co., Ltd., priority 2008, published 2011)
